Measured values published in PubChem BioAssay (NCI).
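The concentration for 50% growth inhibition is given as GI50. Definition used: TGI = concentration required for complete inhibition of growth.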

Experiments:
Test in all cases: NCI tumour cell line growth inhibition, 384-well format
[1] = system: A498 renal
[2] = system: HCT-116 colon
[3] = system: OVCAR-8 ovarian
[4] = system: NCI-H23 lung
[5] = system: K-562 leukemia
[6] = system: HOP-62 NSCLC
[7] = system: M14 melanoma
[8] = system: DU-145 prostate
[9] = system: HS 578T breast
[10] = system: MCF7 breast
[11] = system: COLO 205 colon
[12] = system: BT-549 breast
[13] = system: NCI-H460 NSCLC
[14] = system: U251 glioblastoma
[15] = system: UACC-257 melanoma
[16] = system: NCI-H522 lung
[17] = system: HT29 colon
[18] = system: OVCAR-5 ovarian
[19] = system: RXF 393 renal
[20] = system: KM12 colon
[21] = system: HL-60(TB) leukemia
[22] = system: EKVX NSCLC
[23] = system: SNB-19 CNS
[24] = system: SF-295 CNS
[25] = system: UACC-62 melanoma
[26] = system: UO-31 renal
[27] = system: SF-268 CNS
[28] = system: MALME-3M melanoma
[29] = system: OVCAR-3 ovarian
[30] = system: HCT-15 colon
[31] = system: SN12C renal
[32] = system: IGROV1 ovarian
[33] = system: A549 NSCLC
[34] = system: MDA-MB-231 breast
[35] = system: SK-MEL-5 melanoma
[36] = system: SR leukemia
[37] = system: MDA-MB-468 breast
[38] = system: MDA-MB-435 melanoma
[39] = system: SF-539 CNS
[40] = system: SK-MEL-28 melanoma
[41] = system: PC-3 prostate
[42] = system: T-47D breast
[43] = system: 786-0 renal
[44] = system: SK-MEL-2 melanoma
[45] = system: OVCAR-4 ovarian
[46] = system: MOLT-4 leukemia
[47] = system: SK-OV-3 ovarian
[48] = system: SNB-75 CNS
[49] = system: SW-620 colon
[50] = system: CAKI-1 renal
[51] = system: NCI-H226 lung
[52] = system: ACHN renal
[53] = system: NCI-H322M lung
[54] = system: HOP-92 NSCLC
[55] = system: TK-10 renal
[56] = system: HCC-2998 colon
[57] = system: CCRF-CEM leukemia
[58] = system: NCI/ADR-RES ovarian
[59] = system: LOX IMVI melanoma
[60] = system: RPMI-8226 leukemia

SMILES: Cc1sc2c(c1C)C(c1ccc(Cl)cc1)=N[C@@H](CC(=O)NCCCN1CCN(C)CC1)c1nnc(C)n1-2
- GI50 [1]: 3.31 µM
- TGI [1]: > 100 µM
- GI50 [2]: 0.407 µM
- TGI [2]: > 100 µM
- GI50 [3]: 1.21 µM
- TGI [3]: > 100 µM
- GI50 [4]: 0.308 µM
- TGI [4]: 56.9 µM
- GI50 [5]: 0.154 µM
- TGI [5]: > 100 µM
- GI50 [6]: 0.448 µM
- TGI [6]: > 100 µM
- GI50 [7]: 0.404 µM
- TGI [7]: > 100 µM
- GI50 [8]: 7.16 µM
- TGI [8]: > 100 µM
- GI50 [9]: 0.0381 µM
- TGI [9]: 11.4 µM
- GI50 [10]: 0.0242 µM
- TGI [10]: 4.88 µM
- GI50 [11]: 0.257 µM
- TGI [11]: > 100 µM
- GI50 [12]: 0.238 µM
- TGI [12]: 11.4 µM
- GI50 [13]: 0.453 µM
- TGI [13]: > 100 µM
- GI50 [14]: 2.49 µM
- TGI [14]: > 100 µM
- GI50 [15]: 0.985 µM
- TGI [15]: 21.9 µM
- GI50 [16]: 0.0316 µM
- TGI [16]: 0.352 µM
- GI50 [17]: 0.143 µM
- TGI [17]: > 100 µM
- GI50 [18]: 0.666 µM
- TGI [18]: > 100 µM
- GI50 [19]: 0.338 µM
- TGI [19]: 2.9 µM
- GI50 [20]: 56 µM
- TGI [20]: > 100 µM
- GI50 [21]: 0.0128 µM
- TGI [21]: 0.027 µM
- GI50 [22]: 31.5 µM
- TGI [22]: > 100 µM
- GI50 [23]: > 100 µM
- TGI [23]: > 100 µM
- GI50 [24]: 7.3 µM
- TGI [24]: > 100 µM
- GI50 [25]: 0.0538 µM
- TGI [25]: > 100 µM
- GI50 [26]: 30.2 µM
- TGI [26]: > 100 µM
- GI50 [27]: 12 µM
- TGI [27]: > 100 µM
- GI50 [28]: 0.33 µM
- TGI [28]: 26.4 µM
- GI50 [29]: 0.148 µM
- TGI [29]: > 100 µM
- GI50 [30]: 13 µM
- TGI [30]: > 100 µM
- GI50 [31]: > 100 µM
- TGI [31]: > 100 µM
- GI50 [32]: 0.277 µM
- TGI [32]: > 100 µM
- GI50 [33]: 0.854 µM
- TGI [33]: > 100 µM
- GI50 [34]: 0.0674 µM
- TGI [34]: > 100 µM
- GI50 [35]: 0.462 µM
- TGI [35]: 37.9 µM
- GI50 [36]: 0.0711 µM
- TGI [36]: > 100 µM
- GI50 [37]: 0.0484 µM
- TGI [37]: 0.729 µM
- GI50 [38]: 1.33 µM
- TGI [38]: > 100 µM
- GI50 [39]: 0.312 µM
- TGI [39]: 26.9 µM
- GI50 [40]: 10.1 µM
- TGI [40]: > 100 µM
- GI50 [41]: 0.583 µM
- TGI [41]: > 100 µM
- GI50 [42]: 0.529 µM
- TGI [42]: 71.6 µM
- GI50 [43]: 1.79 µM
- TGI [43]: > 100 µM
- GI50 [44]: 0.0366 µM
- TGI [44]: 24.5 µM
- GI50 [45]: 0.148 µM
- TGI [45]: 1.63 µM
- GI50 [46]: 0.105 µM
- TGI [46]: 10.6 µM
- GI50 [47]: 0.208 µM
- TGI [47]: > 100 µM
- GI50 [48]: 0.443 µM
- TGI [48]: > 100 µM
- GI50 [49]: 23.3 µM
- TGI [49]: > 100 µM
- GI50 [50]: 0.677 µM
- TGI [50]: > 100 µM
- GI50 [51]: 1.52 µM
- TGI [51]: > 100 µM
- GI50 [52]: 10.2 µM
- TGI [52]: > 100 µM
- GI50 [53]: 0.226 µM
- TGI [53]: > 100 µM
- GI50 [54]: 0.486 µM
- TGI [54]: > 100 µM
- GI50 [55]: 1.19 µM
- TGI [55]: > 100 µM

SMILES: Cc1ccccc1C(C(=O)NC1CCCCC1)N(C(=O)CNc1ncccc1F)c1cccc(F)c1 (stereo not drawn)
- GI50 [1]: > 100 µM
- TGI [1]: > 100 µM
- GI50 [56]: > 100 µM
- TGI [56]: > 100 µM
- GI50 [2]: > 100 µM
- TGI [2]: > 100 µM
- GI50 [3]: > 100 µM
- TGI [3]: > 100 µM
- GI50 [4]: > 100 µM
- TGI [4]: > 100 µM
- GI50 [5]: > 100 µM
- TGI [5]: > 100 µM
- GI50 [6]: > 100 µM
- TGI [6]: > 100 µM
- GI50 [57]: > 100 µM
- TGI [57]: > 100 µM
- GI50 [7]: > 100 µM
- TGI [7]: > 100 µM
- GI50 [58]: > 100 µM
- TGI [58]: > 100 µM
- GI50 [8]: > 100 µM
- TGI [8]: > 100 µM
- GI50 [9]: > 100 µM
- TGI [9]: > 100 µM
- GI50 [10]: > 100 µM
- TGI [10]: > 100 µM
- GI50 [11]: > 100 µM
- TGI [11]: > 100 µM
- GI50 [12]: > 100 µM
- TGI [12]: > 100 µM
- GI50 [13]: > 100 µM
- TGI [13]: > 100 µM
- GI50 [14]: > 100 µM
- TGI [14]: > 100 µM
- GI50 [15]: > 100 µM
- TGI [15]: > 100 µM
- GI50 [16]: > 100 µM
- TGI [16]: > 100 µM
- GI50 [17]: > 100 µM
- TGI [17]: > 100 µM
- GI50 [18]: > 100 µM
- TGI [18]: > 100 µM
- GI50 [19]: > 100 µM
- TGI [19]: > 100 µM
- GI50 [20]: > 100 µM
- TGI [20]: > 100 µM
- GI50 [21]: > 100 µM
- TGI [21]: > 100 µM
- GI50 [22]: > 100 µM
- TGI [22]: > 100 µM
- GI50 [23]: > 100 µM
- TGI [23]: > 100 µM
- GI50 [24]: > 100 µM
- TGI [24]: > 100 µM
- GI50 [25]: > 100 µM
- TGI [25]: > 100 µM
- GI50 [26]: > 100 µM
- TGI [26]: > 100 µM
- GI50 [27]: > 100 µM
- TGI [27]: > 100 µM
- GI50 [28]: > 100 µM
- TGI [28]: > 100 µM
- GI50 [29]: > 100 µM
- TGI [29]: > 100 µM
- GI50 [30]: > 100 µM
- TGI [30]: > 100 µM
- GI50 [59]: > 100 µM
- TGI [59]: > 100 µM
- GI50 [31]: > 100 µM
- TGI [31]: > 100 µM
- GI50 [32]: > 100 µM
- TGI [32]: > 100 µM
- GI50 [33]: > 100 µM
- TGI [33]: > 100 µM
- GI50 [34]: > 100 µM
- TGI [34]: > 100 µM
- GI50 [35]: > 100 µM
- TGI [35]: > 100 µM
- GI50 [37]: > 100 µM
- TGI [37]: > 100 µM
- GI50 [38]: > 100 µM
- TGI [38]: > 100 µM
- GI50 [39]: > 100 µM
- TGI [39]: > 100 µM
- GI50 [40]: > 100 µM
- TGI [40]: > 100 µM
- GI50 [41]: > 100 µM
- TGI [41]: > 100 µM
- GI50 [42]: > 100 µM
- TGI [42]: > 100 µM
- GI50 [43]: > 100 µM
- TGI [43]: > 100 µM
- GI50 [60]: > 100 µM
- TGI [60]: > 100 µM
- GI50 [44]: > 100 µM
- TGI [44]: > 100 µM
- GI50 [45]: > 100 µM
- TGI [45]: > 100 µM
- GI50 [46]: > 100 µM
- TGI [46]: > 100 µM
- GI50 [47]: > 100 µM
- TGI [47]: > 100 µM
- GI50 [48]: > 100 µM
- TGI [48]: > 100 µM
- GI50 [49]: > 100 µM
- TGI [49]: > 100 µM
- GI50 [50]: > 100 µM
- TGI [50]: > 100 µM
- GI50 [51]: > 100 µM
- TGI [51]: > 100 µM
- GI50 [52]: > 100 µM
- TGI [52]: > 100 µM
- GI50 [53]: > 100 µM
- TGI [53]: > 100 µM
- GI50 [54]: > 100 µM
- TGI [54]: > 100 µM
- GI50 [55]: > 100 µM
- TGI [55]: > 100 µM
